The values below are quoted from earlier work in publication PMC9411704, “Assessment of the Carcinogenic Potential of Pretomanid in Transgenic Tg.rasH2 Mice” (International Journal of Toxicology, 2022).

Details of this data set: method as in PMID 32130813. As to conditions: 200 mg/day, clinical study NCT02333799; cited from earlier work.

For `O=[N+]([O-])c1cn2c(n1)OC[C@@H](OCc1ccc(OC(F)(F)F)cc1)C2` [Pretomanid, (6S)-2-nitro-6-{[4-(trifluoromethoxy)benzyl]oxy}-6,7-dihydro-5H-imidazo[2,1-b][1,3]oxazine], the “Human AUC0-24” value is 50900 ng·h/mL.
